# “Also recorded” adds a separate entry of the source.
# How the values were obtained:
# [1] = test system: polymerase derived from two parental polymerases, Pfu and DeepVent, and fused with an Sso7d; assay: Effect of surfactant additives on PCR yield (agarose gel); format: biochemical; settings: for PCR yield: additive in PCR reaction mixture, 20 ng template DNA, FIG. 1
# Procedure: The effect of various surfactants on polymerase activity and yield in a PCR reaction mixture was tested. A polymerase derived from two parental polymerases, Pfu and DeepVent, and fused with an Sso7d, was formulated in a variety of reaction mixtures in an effort to identify reaction components that improve PCR yield.
# A reaction mixture comprising polymerase, Tris-HCL pH 9.0, KCl, ammonium sulfate, 20 ng template DNA and target primers was tested with one or more additional components added as follows (results shown in FIG. 1):
# Ranges of concentration of CTAB and SDS were tested and additional components such as octyl b-D-glucopyranoside (OGP) and bovine serum albumin (BSA) were also tested. See, FIG. 2. The lanes of FIG. 2. are described in Table 2 below:
# (§1) In view of the surprising success of the reaction mixture comprising SDS and CTAB, a 5× stock solution was generated.
# [2] = Precipitate formation in 5× stock solution; format: physicochemical
# Source text: as §1
smiles,measurement,setting,value
"C[C@H](CCC(=O)NCCC[N+](C)(C)CCCS(=O)(=O)[O-])[C@H]1CC[C@H]2[C@@H]3[C@H](O)C[C@@H]4C[C@H](O)CC[C@]4(C)[C@H]3C[C@H](O)[C@]12C [CHAPS, 3-[(3-cholamidopropyl)dimethylammonio]-1-propanesulfonate]",interference with PCR,"[1]; CHAPS in 5× stock solution used in PCR reactions, data not shown",did not interfere with PCR
same,precipitate in stock solution,[2]; 5× stock solution contained 1% CHAPS,no precipitate was observed
same,precipitate in stock solution,[2]; CHAPS added to the 5× stock solution,prevented formation of a precipitate
"CCCCCCCCCCCCCCCC[N+](C)(C)C.[Br-] [CTAB, cetyl trimethylammonium bromide]",PCR yield,[1],did not improve PCR yield; also recorded: does not provide any apparent benefit
"CCCCCCCCCCCCOS(=O)(=O)[O-].[Na+] [SDS, sodium dodecyl sulfate]",PCR yield,[1]; sulfate,did not improve PCR yield; also recorded: does not provide any apparent benefit

# Source: US20160032269A1, “BUFFERS FOR USE WITH POLYMERASES” (priority 2014, published 2016)
